Experimental data taken from the CheMixHub viscosity set.
± gives the uncertainty stated by the source.

Assay: xn = mol fraction of the nth substance listed

CCCCCOC(C)=O + ClC(Cl)C(Cl)Cl
303.15 K, 101.3 kPa
Conditions	viscosity [mPa·s]
x1 = 0.1051	1.473 ± 0.01
x1 = 0.2031	1.446 ± 0.01
x1 = 0.3044	1.401 ± 0.0099
x1 = 0.4008	1.34 ± 0.0095
x1 = 0.5038	1.256 ± 0.009
x1 = 0.598	1.165 ± 0.0084
x1 = 0.7002	1.061 ± 0.0079
x1 = 0.7935	0.9582 ± 0.0073
x1 = 0.8927	0.8565 ± 0.0068

CCOC(=O)CC + ClC(Cl)C(Cl)Cl
viscosity [mPa·s], 101.3 kPa
Conditions	308.15 K	318.15 K
x1 = 0.0486	1.333 ± 0.082	1.203 ± 0.075
x1 = 0.0999	1.261 ± 0.078	1.128 ± 0.071
x1 = 0.2025	1.127 ± 0.071	0.996 ± 0.063
x1 = 0.2997	1.013 ± 0.064	0.888 ± 0.057
x1 = 0.3983	0.922 ± 0.059	0.794 ± 0.052
x1 = 0.5003	0.817 ± 0.054	0.71 ± 0.048
x1 = 0.5986	0.714 ± 0.048	0.64 ± 0.044
x1 = 0.7023	0.617 ± 0.042	0.576 ± 0.04
x1 = 0.801	0.583 ± 0.041	0.523 ± 0.037
x1 = 0.9018	0.521 ± 0.037	0.476 ± 0.035
x1 = 0.951	0.493 ± 0.036	0.455 ± 0.033

CCCCCOC(C)=O + ClC(Cl)Cl
303.15 K, 101.3 kPa
Conditions	viscosity [mPa·s]
x1 = 0.0995	0.5918 ± 0.004
x1 = 0.2017	0.6667 ± 0.0044
x1 = 0.2998	0.725 ± 0.0048
x1 = 0.3984	0.7678 ± 0.005
x1 = 0.5049	0.7991 ± 0.0052
x1 = 0.5912	0.8048 ± 0.0052
x1 = 0.7005	0.8002 ± 0.0052
x1 = 0.8153	0.7844 ± 0.0051
x1 = 0.8911	0.7722 ± 0.005

CCCCCOC(C)=O + ClCCCl
303.15 K, 101.3 kPa
Conditions	viscosity [mPa·s]
x1 = 0.1052	0.7366 ± 0.0062
x1 = 0.196	0.7444 ± 0.0062
x1 = 0.303	0.7582 ± 0.0063
x1 = 0.4004	0.7651 ± 0.0063
x1 = 0.4924	0.7693 ± 0.0064
x1 = 0.5994	0.7716 ± 0.0064
x1 = 0.702	0.7686 ± 0.0064
x1 = 0.805	0.762 ± 0.0063
x1 = 0.8946	0.7597 ± 0.0063

CC1CCCO1 (centres undefined) + Clc1ccccc1
298.15 K, 101 kPa
Conditions	viscosity [mPa·s]
x2 = 0.0188	0.47 ± 0.0055
x2 = 0.0509	0.482 ± 0.0056
x2 = 0.103	0.501 ± 0.0056
x2 = 0.157	0.52 ± 0.0057
x2 = 0.2126	0.54 ± 0.0058
x2 = 0.2712	0.56 ± 0.0058
x2 = 0.3298	0.579 ± 0.0059
x2 = 0.3913	0.598 ± 0.0059
x2 = 0.4548	0.617 ± 0.006
x2 = 0.5206	0.635 ± 0.006
x2 = 0.5892	0.654 ± 0.0061
x2 = 0.6601	0.671 ± 0.0061
x2 = 0.7334	0.689 ± 0.0061
x2 = 0.8094	0.705 ± 0.0062
x2 = 0.889	0.722 ± 0.0062
x2 = 0.9713	0.737 ± 0.0062

CCOC(=O)CC + Clc1ccccc1
viscosity [mPa·s], 101.3 kPa
Conditions	308.15 K	318.15 K
x1 = 0.0485	0.647 ± 0.006	0.598 ± 0.005
x1 = 0.102	0.636 ± 0.006	0.588 ± 0.005
x1 = 0.1976	0.616 ± 0.005	0.57 ± 0.005
x1 = 0.307	0.594 ± 0.005	0.55 ± 0.005
x1 = 0.3981	0.576 ± 0.005	0.534 ± 0.005
x1 = 0.4981	0.557 ± 0.005	0.517 ± 0.005
x1 = 0.6116	0.535 ± 0.005	0.498 ± 0.005
x1 = 0.7034	0.519 ± 0.005	0.483 ± 0.004
x1 = 0.7992	0.501 ± 0.005	0.467 ± 0.004
x1 = 0.9	0.484 ± 0.004	0.451 ± 0.004
x1 = 0.9478	0.476 ± 0.004	0.444 ± 0.004

ClCC(Cl)Cl + N#CCc1ccccc1
Conditions	viscosity [mPa·s]
303.15 K, 101 kPa, x2 = 0.3463	1.365 ± 0.019

C[NH+]1CCCC1=O.O=S(=O)([O-])c1ccccc1 + O
viscosity [mPa·s]
Conditions	293.15 K	298.15 K	303.15 K	308.15 K
100 kPa, x1 = 0.001798	1.074 ± 0.012	0.9472 ± 0.011	0.8439 ± 0.0098	0.7688 ± 0.0089
100 kPa, x1 = 0.003606	1.137 ± 0.013	–	0.8882 ± 0.01	0.8029 ± 0.0093
100 kPa, x1 = 0.005372	1.198 ± 0.014	1.053 ± 0.012	0.9316 ± 0.011	–
100 kPa, x1 = 0.008042	1.285 ± 0.015	–	0.998 ± 0.011	0.8943 ± 0.01
100 kPa, x1 = 0.01069	1.372 ± 0.016	1.206 ± 0.014	–	0.9518 ± 0.011
100 kPa, x1 = 0.01421	1.491 ± 0.017	–	–	–
100 kPa, x1 = 0.02115	1.749 ± 0.02	–	–	–
100 kPa, x1 = 0.02631	1.971 ± 0.023	1.746 ± 0.02	1.541 ± 0.018	1.369 ± 0.016
100 kPa, x1 = 0.03141	2.217 ± 0.026	1.963 ± 0.023	1.737 ± 0.02	1.527 ± 0.018
101 kPa, x1 = 0.005347	–	1.055 ± 0.012	–	–
101 kPa, x1 = 0.01545	–	–	1.185 ± 0.014	–

OCCOCCOCCOCCOCCOCCOCCOCCOCCO + O
viscosity [mPa·s], 100 kPa
Conditions	293.15 K	298.15 K	303.15 K	308.15 K	313.15 K	318.15 K	323.15 K
x2 = 0.093	124.5 ± 4.9	93.99 ± 3	72.59 ± 1.6	57.45 ± 1	46.04 ± 0.8	37.51 ± 0.59	30.97 ± 0.45
x2 = 0.12	121.6 ± 4.6	92.08 ± 2.4	71.18 ± 1.1	56.4 ± 0.7	45.22 ± 0.56	36.83 ± 0.41	30.41 ± 0.31
x2 = 0.187	120.7 ± 4.6	91.49 ± 2.4	70.11 ± 1.1	55.25 ± 0.66	44.27 ± 0.54	36.03 ± 0.4	29.76 ± 0.3
x2 = 0.256	117.4 ± 4.5	88.73 ± 2.2	68.34 ± 0.97	54.28 ± 0.58	43.47 ± 0.48	35.36 ± 0.34	29.19 ± 0.25
